# Laboratory results reported in patent US11878970B2, “Allosteric chromenone inhibitors of phosphoinositide 3-kinase (PI3K) for the treatment of disease” (Petra Pharma Corporation, priority 2021, dated 2024).
# Legend:
# [1] = molecular target: T1, PI3K-α (PIK3CA) wild-type (WT), p110α/p85α complex (Homo sapiens, UniProt P42336); test: PI3K-alpha kinase (PIK3CA) biochemical activity, ADP-Glo, wild-type; details: Soy PI lipid substrate
# T1 construct: Recombinant, catalytically active human full length PIK3KA Wild-type and H1047R mutant; 6×His (N); purchased EMD Millipore Sigma 14-602M
# Procedure, shortened: (§1)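 ADP formation measured by ADP-Glo luminescence after reaction at 27 °C to about 10% ATP turnover, using 20 uM ATP, 50 uM PIP2diC8 or soy PI lipid, HEPES pH 7.4 with MgCl2. Enzyme (1-5 nM WT or H1047R p110α/p85α) and compound preincubated 1 h first; 10-point 1:3 curves fitted four-parameter for IC50.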
# [2] = molecular target: T2, PI3K-α (PIK3CA) H1047R mutant, p110α/p85α complex (Homo sapiens, UniProt P42336, H1047R); test: PI3K-alpha kinase (PIK3CA) biochemical activity, ADP-Glo, H1047R mutant; details: Soy PI lipid substrate
# T2 construct: Recombinant, catalytically active human full length PIK3KA Wild-type and H1047R mutant; 6×His (N); purchased EMD Millipore Sigma 14-792M
# T2 sequence (P42336 whole entry H1047R): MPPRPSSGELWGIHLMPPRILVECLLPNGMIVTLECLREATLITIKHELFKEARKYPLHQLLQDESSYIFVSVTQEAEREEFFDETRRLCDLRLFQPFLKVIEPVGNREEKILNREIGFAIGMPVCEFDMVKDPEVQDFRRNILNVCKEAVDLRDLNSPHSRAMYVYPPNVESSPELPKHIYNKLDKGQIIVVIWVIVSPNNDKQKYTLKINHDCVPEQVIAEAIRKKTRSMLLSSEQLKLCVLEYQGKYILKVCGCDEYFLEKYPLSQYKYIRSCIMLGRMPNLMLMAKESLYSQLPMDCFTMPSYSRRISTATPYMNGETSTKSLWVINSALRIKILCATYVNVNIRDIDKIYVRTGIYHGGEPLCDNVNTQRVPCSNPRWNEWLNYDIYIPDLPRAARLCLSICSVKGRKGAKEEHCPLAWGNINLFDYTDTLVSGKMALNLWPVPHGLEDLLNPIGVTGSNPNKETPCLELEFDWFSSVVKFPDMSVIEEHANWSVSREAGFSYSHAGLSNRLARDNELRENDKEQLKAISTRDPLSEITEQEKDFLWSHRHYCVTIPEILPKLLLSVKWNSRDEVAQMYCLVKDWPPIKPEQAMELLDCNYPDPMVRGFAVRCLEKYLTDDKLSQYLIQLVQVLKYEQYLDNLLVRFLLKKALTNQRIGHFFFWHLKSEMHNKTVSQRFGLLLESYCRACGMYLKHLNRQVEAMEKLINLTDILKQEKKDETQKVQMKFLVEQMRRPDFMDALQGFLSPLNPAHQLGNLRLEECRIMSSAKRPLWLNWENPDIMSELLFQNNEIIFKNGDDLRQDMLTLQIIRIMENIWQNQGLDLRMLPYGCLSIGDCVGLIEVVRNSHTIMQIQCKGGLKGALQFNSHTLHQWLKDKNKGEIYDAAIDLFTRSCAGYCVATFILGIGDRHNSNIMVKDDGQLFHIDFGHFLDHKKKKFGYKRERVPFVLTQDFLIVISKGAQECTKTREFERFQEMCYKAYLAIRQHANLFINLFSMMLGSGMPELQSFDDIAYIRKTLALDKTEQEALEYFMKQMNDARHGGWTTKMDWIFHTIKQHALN
# T2 sequence (P27986 whole entry partner): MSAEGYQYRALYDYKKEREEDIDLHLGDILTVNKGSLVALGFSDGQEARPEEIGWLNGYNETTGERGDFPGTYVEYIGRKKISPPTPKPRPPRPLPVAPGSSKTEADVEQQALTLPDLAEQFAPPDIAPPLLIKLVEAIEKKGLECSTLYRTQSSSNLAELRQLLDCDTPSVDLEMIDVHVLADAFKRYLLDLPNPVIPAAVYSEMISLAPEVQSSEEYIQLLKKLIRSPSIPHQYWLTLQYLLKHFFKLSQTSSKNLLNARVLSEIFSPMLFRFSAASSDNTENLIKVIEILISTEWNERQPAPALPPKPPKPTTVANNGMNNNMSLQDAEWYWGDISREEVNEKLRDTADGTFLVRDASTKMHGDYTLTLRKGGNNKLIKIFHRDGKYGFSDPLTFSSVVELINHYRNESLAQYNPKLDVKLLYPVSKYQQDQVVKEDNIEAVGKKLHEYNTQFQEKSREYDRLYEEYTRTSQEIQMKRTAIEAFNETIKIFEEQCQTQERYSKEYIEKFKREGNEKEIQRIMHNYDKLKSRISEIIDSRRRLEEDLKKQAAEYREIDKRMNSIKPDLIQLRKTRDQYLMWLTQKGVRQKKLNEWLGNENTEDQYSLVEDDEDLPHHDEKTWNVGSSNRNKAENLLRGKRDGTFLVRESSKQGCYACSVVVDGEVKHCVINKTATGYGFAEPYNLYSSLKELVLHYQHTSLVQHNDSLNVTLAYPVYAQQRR
# Procedure, shortened: as §1
# [3] = molecular target: PI3K-α (PIK3CA) in MDA-MB-453 cells (Homo sapiens, UniProt P42336); test: PI3K-alpha kinase (PIK3CA) in vitro cell based assay, MDA-MB-453 cells, SureFire Ultra AlphaLisa; details: read-out: PI3K-α (PIK3CA) in vitro cell based assay IC50
# Sequence of PI3K-α (PIK3CA) in MDA-MB-453 cells (P27986 2-724): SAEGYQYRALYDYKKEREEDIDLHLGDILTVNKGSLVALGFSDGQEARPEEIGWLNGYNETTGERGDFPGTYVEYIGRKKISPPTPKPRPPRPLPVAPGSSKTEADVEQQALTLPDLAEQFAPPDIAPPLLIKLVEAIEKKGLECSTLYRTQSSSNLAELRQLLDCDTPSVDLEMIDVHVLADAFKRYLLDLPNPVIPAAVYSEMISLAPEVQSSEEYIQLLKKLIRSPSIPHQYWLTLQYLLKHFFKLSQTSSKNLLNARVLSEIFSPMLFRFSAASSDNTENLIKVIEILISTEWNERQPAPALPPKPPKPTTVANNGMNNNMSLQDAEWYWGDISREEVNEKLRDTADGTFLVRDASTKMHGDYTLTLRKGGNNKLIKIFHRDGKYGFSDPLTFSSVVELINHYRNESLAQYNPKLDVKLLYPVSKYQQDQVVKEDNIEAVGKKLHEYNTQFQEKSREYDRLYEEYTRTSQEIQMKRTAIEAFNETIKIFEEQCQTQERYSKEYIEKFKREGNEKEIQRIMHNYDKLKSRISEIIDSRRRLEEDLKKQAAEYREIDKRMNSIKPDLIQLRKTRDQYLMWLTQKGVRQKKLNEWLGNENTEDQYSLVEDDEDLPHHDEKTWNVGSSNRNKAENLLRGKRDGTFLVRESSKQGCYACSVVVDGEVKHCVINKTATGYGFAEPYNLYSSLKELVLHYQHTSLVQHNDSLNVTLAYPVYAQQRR
# Sequence of PI3K-α (PIK3CA) in MDA-MB-453 cells (P42336 whole entry): as the sequence (P42336 whole entry H1047R) above, with R1047H counted along it
# Procedure, shortened: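 Cells treated 3 h in serum-free MEM with 1 μg/mL insulin, 10-point 1:3 series in 0.3% DMSO, then lysed for SureFire Ultra AlphaLisa read-out. Inhibition normalized to DMSO (max) and 1 μM GDC-0032 (min); duplicate averages fitted by 4-parameter logistic for relative IC50.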
IC50 [1] [µM],IC50 [2] [µM],IC50 [3] [µM],Structure (SMILES)
0.5 to 1,0.5 to 1,> 0.5,"Cc1cc(-c2cc(=O)c3cc(C(F)(F)F)cc(C(C)Nc4ccc(Cl)nc4C(=O)O)c3o2)cc2cn(C)nc12 (single isomer, unassigned) [Example 192, 6-Chloro-3-[1-[2-(2,7-dimethylindazol-5-yl)-4-oxo-6-(trifluoromethyl)chromen-8-yl]ethylamino]pyridine-2-carboxylic acid]"
0.5 to 1,< 0.5,0.1 to 0.5,"Cc1cc(C(C)Nc2cccc(F)c2C(=O)O)c2oc(-c3ccc4cnn(C)c4c3)cc(=O)c2c1 (single isomer, unassigned) [Example 222, 2-fluoro-6-[1-[6-methyl-2-(1-methylindazol-6-yl)-4-oxo-chromen-8-yl]ethylamino]benzoic acid]"
0.5 to 1,< 0.5,< 0.05,"CC(Nc1ccc(Cl)nc1C(=O)O)c1cc(C(F)(F)F)cc2c(=O)cc(-c3ccc4cnn(C)c4c3)oc12 (single isomer, unassigned) [Example 108, 6-Chloro-3-[1-[2-(1-methylindazol-6-yl)-4-oxo-6-(trifluoromethyl)chromen-8-yl]ethylamino]pyridine-2-carboxylic acid]"
0.5 to 1,< 0.5,< 0.05,"Cc1cc([C@@H](C)Nc2ccccc2C(=O)O)c2oc(-c3ccc4nc(C)sc4c3)c(C)c(=O)c2c1 [Example 262, 2-[[(1R)-1-[3,6-Dimethyl-2-(2-methyl-1,3-benzothiazol-6-yl)-4-oxo-chromen-8-yl]ethyl]amino]benzoic acid]"
0.5 to 1,< 0.5,0.1 to 0.5,"Cc1cc(C(C)Nc2ccccc2C(=O)O)c2oc(-c3ccc4cnn(C)c4n3)cc(=O)c2c1 (single isomer, unassigned) [Example 82, 2-[1-[6-Methyl-2-(1-methylpyrazolo[3,4-b]pyridin-6-yl)-4-oxo-chromen-8-yl]ethylamino]benzoic acid]"
0.5 to 1,< 0.5,0.05 to 0.1,"Cc1cc([C@@H](C)Nc2cccc(F)c2C(=O)O)c2oc(-c3ccc4cc[nH]c4n3)cc(=O)c2c1 [Example 241, 2-Fluoro-6-[[(1R)-1-[6-methyl-4-oxo-2-(1H-pyrrolo[2,3-b]pyridin-6-yl)chromen-8-yl]ethyl]amino]benzoic acid]"
0.5 to 1,< 0.5,< 0.05,"Cc1cc([C@@H](C)Nc2ccccc2C(=O)O)c2oc(-c3ccc4nc(C)oc4n3)c(C)c(=O)c2c1 [Example 256, 2-[[(1R)-1-[3,6-Dimethyl-2-(2-methyloxazolo[5,4-b]pyridin-5-yl)-4-oxo-chromen-8-yl]ethyl]amino]benzoic acid]"
0.5 to 1,< 0.5,< 0.05,"Cc1cc([C@@H](C)Nc2ccc(Cl)cc2C(=O)O)c2oc(-c3ccc4nn(C)cc4c3)c(C)c(=O)c2c1 [Example 258, 5-Chloro-2-[[(1R)-1-[3,6-dimethyl-2-(2-methylindazol-5-yl)-4-oxo-chromen-8-yl]ethyl]amino]benzoic acid]"
< 0.5,< 0.5,< 0.05,"Cc1cc(C(C)Nc2ccc(Cl)nc2C(=O)O)c2oc(-c3ccc4c(cnn4C)c3)cc(=O)c2c1 (single isomer, unassigned) [Example 218, 6-Chloro-3-[1-[6-methyl-2-(1-methylindazol-5-yl)-4-oxo-chromen-8-yl]ethylamino]pyridine-2-carboxylic acid]"
< 0.5,< 0.5,< 0.05,"Cc1cc([C@@H](C)Nc2ccc(F)cc2C(=O)O)c2oc(-c3ccc4cnn(C)c4c3)cc(=O)c2c1 [Example 238, 5-Fluoro-2-[[(1R)-1-[6-methyl-2-(1-methylindazol-6-yl)-4-oxo-chromen-8-yl]ethyl]amino]benzoic acid]"
0.5 to 1,1 to 5,> 0.5,"Cc1cc(C(C)Nc2cccc(F)c2C(=O)O)c2oc(-c3ccc4cnn(C)c4c3)cc(=O)c2c1 (single isomer, unassigned) [Example 221, 2-fluoro-6-[1-[6-methyl-2-(1-methylindazol-6-yl)-4-oxo-chromen-8-yl]ethylamino]benzoic acid]"
0.5 to 1,< 0.5,< 0.05,"Cc1cc([C@@H](C)Nc2ccc(Cl)nc2C(=O)O)c2oc(-c3ccc4nc(C)sc4n3)c(C)c(=O)c2c1 [Example 242, 6-Chloro-3-[[(1R)-1-[3,6-dimethyl-2-(2-methylthiazolo[5,4-b]pyridin-5-yl)-4-oxo-chromen-8-yl]ethyl]amino]pyridine-2-carboxylic acid]"
1 to 5,< 0.5,0.05 to 0.1,"Cc1cc(C(C)Nc2ccccc2C(=O)O)c2oc(-c3cc4cn(C)nc4cn3)cc(=O)c2c1 (single isomer, unassigned) [Example 160, 2-[1-[6-Methyl-2-(2-methylpyrazolo[3,4-c]pyridin-5-yl)-4-oxo-chromen-8-yl]ethylamino]benzoic acid]"
1 to 5,1 to 5,> 0.5,"Cc1cc(C(C)Nc2ccc(Cl)nc2C(=O)O)c2oc(-c3ccc4cnn(C)c4c3)cc(=O)c2c1 (single isomer, unassigned) [Example 219, 6-Chloro-3-[1-[6-methyl-2-(1-methylindazol-6-yl)-4-oxo-chromen-8-yl]ethylamino]pyridine-2-carboxylic acid]"
0.5 to 1,< 0.5,< 0.05,"Cc1cc(C(C)Nc2ccc(Cl)nc2C(=O)O)c2oc(-c3cc4ccccc4[nH]3)cc(=O)c2c1 (single isomer, unassigned) [Example 223, 6-Chloro-3-[1-[2-(1H-indol-2-yl)-6-methyl-4-oxo-chromen-8-yl]ethylamino]pyridine-2-carboxylic acid]"
0.5 to 1,< 0.5,0.05 to 0.1,"Cc1cc(C(C)Nc2cccc(F)c2C(=O)O)c2oc(-c3cc(C)c4nn(C)cc4c3)cc(=O)c2c1 (single isomer, unassigned) [Example 190, 2-[1-[2-(2,7-Dimethylindazol-5-yl)-6-methyl-4-oxo-chromen-8-yl]ethylamino]-6-fluoro-benzoic acid]"
0.5 to 1,< 0.5,< 0.05,"Cc1cc([C@@H](C)Nc2ccc(F)cc2C(=O)O)c2oc(-c3ccc4nc(C)sc4n3)c(C)c(=O)c2c1 [Example 254, 2-[[(1R)-1-[3,6-Dimethyl-2-(2-methylthiazolo[5,4-b]pyridin-5-yl)-4-oxo-chromen-8-yl]ethyl]amino]-5-fluoro-benzoic acid]"

Structure (SMILES),IC50 [1] [µM],IC50 [2] [µM],IC50 [3] [µM]
"Cc1cc(C(C)Nc2ccccc2C(=O)O)c2oc(-c3ccc4oc(C)nc4c3)cc(=O)c2c1 (single isomer, unassigned) [Example 19, 2-[1-[6-Methyl-2-(2-methyl-1,3-benzoxazol-5-yl)-4-oxo-chromen-8-yl]ethylamino]benzoic acid]",1 to 5,< 0.5,> 0.5
"Cc1cc(C(C)Nc2ccccc2C(=O)O)c2oc(-c3ccc4c(c3)OC(F)(F)O4)cc(=O)c2c1 (single isomer, unassigned) [Example 64, 2-[1-[2-(2,2-Difluoro-1,3-benzodioxol-5-yl)-6-methyl-4-oxo-chromen-8-yl]ethylamino]benzoic acid]",1 to 5,< 0.5,< 0.05
"Cc1cc(C(C)Nc2ccccc2C(=O)O)c2oc(-c3cnn4ccccc34)cc(=O)c2c1 (single isomer, unassigned) [Example 125, 2-[1-(6-Methyl-4-oxo-2-pyrazolo[1,5-a]pyridin-3-yl-chromen-8-yl)ethylamino]benzoic acid]",1 to 5,< 0.5,< 0.05
"Cc1cc(C(C)Nc2ccccc2C(=O)O)c2oc(-c3cc4ccncc4o3)c(C)c(=O)c2c1 (single isomer, unassigned) [Example 151, 2-[1-(2-Furo[2,3-c]pyridin-2-yl-3,6-dimethyl-4-oxo-chromen-8-yl)ethylamino]benzoic acid]",0.5 to 1,< 0.5,< 0.05
"Cc1cc(C(C)Nc2ccccc2C(=O)O)c2oc(-c3ccc4nc(C(F)(F)F)cn4c3)cc(=O)c2c1 (single isomer, unassigned) [Example 70, 2-[1-[6-Methyl-4-oxo-2-[2-(trifluoromethyl)imidazo[1,2-a]pyridin-6-yl]chromen-8-yl]ethylamino]benzoic acid]",1 to 5,< 0.5,0.05 to 0.1
"Cc1cn2cc(-c3cc(=O)c4cc(F)cc(C(C)Nc5ccccc5C(=O)O)c4o3)ccc2n1 (single isomer, unassigned) [Example 51, 2-[1-[6-Fluoro-2-(2-methylimidazo[1,2-a]pyridin-6-yl)-4-oxo-chromen-8-yl]ethylamino]benzoic acid]",1 to 5,< 0.5,< 0.05
"Cc1cc(C(C)Nc2ccccc2C(=O)O)c2oc(-c3cnc4cc[nH]c4c3)cc(=O)c2c1 (single isomer, unassigned) [Example 71, 2-[1-[6-Methyl-4-oxo-2-(1H-pyrrolo[3,2-b]pyridin-6-yl)chromen-8-yl]ethylamino]benzoic acid]",1 to 5,< 0.5,0.1 to 0.5
